Test results taken from patent publication US11440886B2, “Anti-inflammatory compound, and preparation and use thereof” (E-Nitiate Biopharmaceuticals (Hangzhou) Co., Ltd., priority 2018, dated 2022).

target: human recombinant PDE4B1 enzyme (Homo sapiens (Human), UniProt Q07343); assay: Inhibition of PDE4B1 activity by cAMP HTRF assay; type: biochemical; details: human recombinant PDE4B1, cAMP 40 nM, pH 7.4
Description: Determination of the inhibition of the compounds on PDE4B1 activity by using cAMP HTRF® assay
The inhibitory effect of the compounds on human PDE4B1 enzyme activity was determined by quantifying the 5′-adenosine monophosphate (5′-AMP) formed from 3′,5′-cyclic adenosine monophosphate (cAMP).
The test compound or water (control) and human recombinant PDE4B1 enzyme (4.8 U) were mixed in a buffer solution (pH 7.4) consisting of 1× Hanks' balanced salt solution (HBSS), 5 mM HEPES, 3 mM MgCl2, and 0.1% BSA and incubated for 10 min. A cAMP enzyme substrate (final concentration 40 nM) was added, and the mixture was incubated at room temperature for 60 min. Then a fluorescent acceptor (Dye2 labeled with cAMP), a fluorescent donor (anti-cAMP antibody labeled with europium cryptate) and a non-specific phosphodiesterase inhibitor IBMX (3-isobutyl-1-methyl xanthine; final concentration 1 mM) were added. After 60 min, the fluorescence transfer related to the amount of remaining cAMP was measured on a microplate reader (Rubystar, BMG) at λex=337 nm, λem=620 nm and λem=665 nm. The enzyme activity is calculated from the ratio of the signals measured at 665 nm and 620 nm. The results are expressed as percent inhibition of the enzyme activity of the control (without PDE4 inhibitor). The enzyme was omitted for measurement of the basic control. The IC50 value (IC50=the concentration that caused the half-maximum inhibition of the specific activity of the control) is derived from dose-response measurements with eight different concentrations (n=2; repeated 2 times)

Sequence of human recombinant PDE4B1 enzyme (Q07343 whole entry): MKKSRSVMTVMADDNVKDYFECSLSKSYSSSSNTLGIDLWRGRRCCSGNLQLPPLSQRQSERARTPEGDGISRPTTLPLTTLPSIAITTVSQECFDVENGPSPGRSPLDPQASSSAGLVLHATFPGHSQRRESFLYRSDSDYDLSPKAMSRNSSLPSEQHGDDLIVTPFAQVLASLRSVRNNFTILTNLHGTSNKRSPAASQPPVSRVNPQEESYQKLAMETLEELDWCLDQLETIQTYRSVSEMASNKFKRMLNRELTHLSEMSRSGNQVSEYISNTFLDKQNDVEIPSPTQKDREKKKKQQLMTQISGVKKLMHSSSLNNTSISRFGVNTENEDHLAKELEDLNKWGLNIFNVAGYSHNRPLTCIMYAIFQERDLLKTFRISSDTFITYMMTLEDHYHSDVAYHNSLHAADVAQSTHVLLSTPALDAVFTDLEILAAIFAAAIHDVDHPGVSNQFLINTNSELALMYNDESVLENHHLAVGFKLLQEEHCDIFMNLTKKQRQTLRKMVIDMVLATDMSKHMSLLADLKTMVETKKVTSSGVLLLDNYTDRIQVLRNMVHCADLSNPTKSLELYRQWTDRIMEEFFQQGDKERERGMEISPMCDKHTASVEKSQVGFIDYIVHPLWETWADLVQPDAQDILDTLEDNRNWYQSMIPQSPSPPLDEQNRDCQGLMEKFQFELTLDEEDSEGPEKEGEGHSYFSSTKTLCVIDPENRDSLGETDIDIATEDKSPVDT

| IC50 [nM] | Compound |
| --- | --- |
| 760 | CNC(=O)/C(=C\n1c(C)cc(=O)cc1C)c1ccc(OC)c(OCC2CC2)c1 [Example 108, (Z)-2-(3-cyclopropylmethoxy-4-methoxyphenyl)-3-(2,6-dimethyl-4-carbonylpyridin-1(4H)-yl)-N-methylacrylamide] |
| 2.7 | COc1ccc(C(C#N)=Cn2c(C)cc(=O)cc2C)cc1OCC1CC1 (stereo in doubt) [Example 106, (E)-1-(2-(3-cyclopropylmethoxy-4-methoxyphenyl)-2-cyanoethenyl)-2,6-dimethylpyridin-4(1H)-one] |
| 75 | Cc1cc(=O)cc(C)n1/C=C/c1ccc(OC(F)F)c(OC[S+](C)[O-])c1 (centres unmarked) [Example 91, (E)-1-(3-methylsulfoxidemethoxy-4-difluoromethoxystyryl)-2,6-dimethylpyridin-4(1H)-one] |
| 97 | Cc1cc(=O)cc(C)n1/C=C/c1ccc(OC(F)F)c(O[C@H]2CC[S+]([O-])C2)c1 (single isomer, unassigned) [Example 98-1] |
| 1700 | COc1ccc(/C(=C/n2c(C)cc(=O)cc2C)c2ccccc2)cc1OCC1CC1 [Example 104-1, (E)-1-(2-(3-cyclopropylmethoxy-4-methoxyphenyl)-2-phenylethenyl)-2,6-dimethylpyridin-4(1H)-one] |
| 8400 | COc1ccc(/C(=C\n2c(C)cc(=O)cc2C)c2ccccc2)cc1OCC1CC1 [Example 104-2, (Z)-1-(2-(3-cyclopropylmethoxy-4-methoxyphenyl)-2-phenylethenyl)-2,6-dimethylpyridin-4(1H)-one] |
| 6.9 | COc1cc(/C=C/n2c(C)cc(=O)cc2C)ccc1OC(F)F [Example 89, (E)-1-(3-methoxy-4-difluoromethoxy-styryl)-2,6-dimethylpyridin-4(1H)-one] |
| 180 | COc1ccc(/C(=C/n2c(C)cc(=O)cc2C)C(=O)N(C)C)cc1OCC1CC1 [Example 109, (Z)-2-(3-cyclopropylmethoxy-4-methoxyphenyl)-3-(2,6-dimethyl-4-carbonylpyridin-1(4H)-yl)-N,N-dimethylacrylamide] |
| 170 | CCOC(=O)/C(=C\n1c(C)cc(=O)cc1C)c1ccc(OC)c(OCC2CC2)c1 [Example 113, (Z)-ethyl 2-(3-cyclopropylmethoxy-4-methoxyphenyl)-3-(2,6-dimethyl-4-carbonylpyridin-1(4H)-yl)-acrylate] |
| 138 | COC(=O)/C(=C\n1c(C)cc(=O)cc1C)c1ccc(OC)c(OCC2CC2)c1 [Example 112, (Z)-methyl 2-(3-cyclopropylmethoxy-4-methoxyphenyl)-3-(2,6-dimethyl-4-carbonylpyridin-1(4H)-yl)-acrylate] |
| 59 | Cc1cc(=O)cc(C)n1/C=C/c1ccc(OC(F)F)c(O[C@H]2CCS(=O)(=O)C2)c1 [Example 99, (S,E)-1-(3-(1,1-dioxotetrahydrothiophen-3-yl)oxy-4-difluoromethoxystyryl)-2,6-dimethylpyridin-4(1H)-one] |
| 3 | CC#C/C(=C\n1c(C)cc(=O)cc1C)c1ccc(OC)c(OCC2CC2)c1 [Example 105, (Z)-1-(2-(3-cyclopropylmethoxy-4-methoxyphenyl)pent-1-en-3-yn-1-yl)-2,6-dimethylpyridin-4(1H)-one] |

More lines, now with the values behind:

| Compound | IC50 [nM] |
| --- | --- |
| CC#CCOc1cc(/C=C/n2c(C)cc(=O)cc2C)ccc1OC [Example 67, (E)-1-(3-(but-2-yn-1-yloxy)-4-methoxystyryl)-2,6-dimethylpyridin-4(1H)-one] | 170 |
| COc1ccc(C(=O)Cn2c(C)cc(=O)cc2C)cc1OCC1CC1 [Example 20, 1-(2-(3-cyclopropylmethoxy-4-methoxyphenyl)-2-oxo)ethyl-2,6-dimethylpyridin-4(1H)-one] | 13 |
| C#CCOc1cc(/C=C/n2c(C)cc(=O)cc2C)ccc1OC [Example 66] | 270 |
| COc1ccc(/C=C/n2c(C)cc(=O)cc2C)cc1OC(C)C [Example 54, (E)-1-(3-isopropoxy-4-methoxystyryl)-2,6-dimethylpyridin-4(1H)-one] | 26 |
| COc1ccc(C(=O)Cn2c(C)cc(=O)cc2C)cc1OC(C)C [Example 14, 1-(2-(3-isopropoxy-4-methoxyphenyl)-2-oxoethyl)-2,6-dimethylpyridin-4(1H)-one] | 21 |
| COc1ccc(/C=C/n2c(C)cc(=O)cc2C)cc1O[C@@H]1CCS(=O)(=O)C1 [Example 87, (R,E)-1-(3-((1,1-dioxotetrahydrothiophen-3-yl)oxy)-4-methoxy-styryl)-2,6-dimethylpyridin-4(1H)-one] | 78 |
| CC#CC(=O)OC(Cn1c(C)cc(=O)cc1C)c1ccc(OC)c(OCC2CC2)c1 (centres unmarked) [Example 8, (1-(3-cyclopropylmethoxy-4methoxyphenyl)-2-(2,6-dimethyl-4-carbonylpyridin-1(4H)-yl)ethyl) but-2-ynoate] | 23 |
| COc1ccc(/C=C/n2c(C)cc(=O)cc2C)cc1OC1CCCO1 (centres unmarked) [Example 70, (E)-1-((3-(tetrahydrofuran-2-yl)oxy-4-methoxy)-styryl)-2,6-dimethylpyridin-4(1H)-one] | 8.1 |
| COc1ccc(/C=C/n2c(C)cc(=O)cc2C)cc1OCC(C)C [Example 56, (E)-1-(3-iso-butoxy-4-methoxystyryl)-2,6-dimethylpyridin-4(1H)-one] | 16 |
| COc1ccc(/C=C/n2c(C)cc(=O)cc2C)cc1OCSC [Example 74, (E)-1-(3-methylthiomethoxy-4-methoxystyryl)-2,6-dimethylpyridin-4(1H)-one] | 38 |
| CO/N=C(/Cn1c(C)cc(=O)cc1C)c1ccc(OC)c(OCC2CC2)c1 [Example 40, (E)-1-(2-(3-cyclopropylmethoxy-4-methoxyphenyl)-2-(hydroxymethylimido)ethyl)-2,6-dimethylpyridin-4(1H)-one] | 6.8 |
| COc1ccc(/C=C/n2c(C)cc(=O)cc2C)cc1OC1CCS(=O)(=O)C1 (centres unmarked) [Example 81, (E)-1-(3-((1,1,-dioxotetrahydrothiophen-3-yl)oxy)-4-methoxystyryl)-2,6-dimethylpyridin-4(1H)-one] | 1.15 |
| COc1ccc(/C=C/n2c(C)cc(=O)cc2C)cc1OC1CSC1 [Example 69, (E)-1-((3-(thiacyclobutan-3-yl-oxy)-4-methoxy)-styryl)-2,6-dimethylpyridin-4(1H)-one] | 5200 |
| COc1ccc(/C=C/n2c(C)cc(=O)cc2C)cc1O[C@@H]1CC[S+]([O-])C1 (single isomer, unassigned) [Example 86-1] | 310 |
| COc1ccc(C(O)Cn2c(C)cc(=O)cc2C)cc1OCC1CC1 (centres unmarked) [Example 1, 1-(2-(3-cyclopropylmethoxy-4-methoxyphenyl)-2-hydroxyethyl)-2,6, dimethylpyridin-4(1H)-one] | 760 |
| COc1ccc(/C=C/n2c(C)cc(=O)cc2C)cc1O[C@H]1CCS(=O)(=O)C1 [Example 84, (S,E)-1-(3-((1,1-dioxotetrahydrothiophen-3-yl)oxy)-4-methoxy-styryl)-2,6-dimethylpyridin-4(1H)-one] | 230 |
| C=CCOc1cc(/C=C/n2c(C)cc(=O)cc2C)ccc1OC [Example 64, (E)-1-(3-allyloxy-4-methoxy-styryl)-2,6-dimethylpyridin-4(1H)-one] | 43 |
| COc1ccc(/C=C/n2c(C)cc(=O)cc2C)cc1OC[S+](C)[O-] (centres unmarked) [Example 75, (E)-1-(3-methylsulfoxidemethoxy-4-methoxystyryl)-2,6-dimethylpyridin-4(1H)-one] | 290 |
| COc1ccc(C2CC2n2c(C)cc(=O)cc2C)cc1OCC1CC1 (centres unmarked) [Example 48, 1-(2-(3-cyclopropylmethoxy-4-methoxyphenyl)cyclopropyl)-2,6-dimethylpyridin-4(1H)-one] | 420 |
| COc1ccc(C(=O)Cn2ccc(=O)cc2C)cc1OCC1CC1 [Example 46, 1-(2-(3-cyclopropylmethoxy-4-methoxyphenyl)-2-oxoethyl)-2-methylpyridin-4(1H)-one] | 25 |
| COc1ccc(/C=C/n2c(C)cc(=O)cc2C)cc1OCC1CC1 [Example 59, (E)-1-(3-cyclopropylmethoxy-4-methoxystyryl)-2,6-dimethylpyridin-4(1H)-one] | 5.1 |
| C#CCOc1cc(C(=O)Cn2c(C)cc(=O)cc2C)ccc1OC [Example 28, 1-(2-(3-propargyloxy-4-methoxyphenyl)-2-oxoethyl)-2,6-dimethylpyridin-4(1H)-one] | 92 |
| COc1ccc(C(=O)Cn2c(C)cc(=O)cc2C)cc1OC1CCCCC1 [Example 24, 1-(2-(3-cyclohexyloxy-4-methoxyphenyl)-2-oxoethyl)-2,6-dimethylpyridin-4(1H)-one] | 23 |
| CC#CCOc1cc(C(=O)Cn2c(C)cc(=O)cc2C)ccc1OC [Example 29, 1-(2-(3-(but-2-yn-1-yloxy)-4-methoxyphenyl)-2-oxoethyl)-2,6-dimethylpyridin-4(1H)-one] | 93 |
| COc1ccc(/C=C/n2ccc(=O)cc2C)cc1OCC1CC1 [Example 51, (E)-1-(3-cyclopropylmethoxy-4-methoxystyryl)-2-methylpyridin-4(1H)-one] | 57 |
| COc1ccc(C(=O)Cn2c(C)cc(=O)cc2C)cc1OCS(C)(=O)=O [Example 34, 1-(2-(3-methylsulfonemethoxy-4-methoxyphenyl)-2-oxoethyl)-2,6-dimethylpyridin-4(1H)-one] | 420 |
